Data set [1] can be described thus: xn = mol fraction of the nth substance listed. Particulars: 101 kPa, Liquid, x2 = 0; for viscosity: Falling or rolling sphere viscometry; for speed of sound: Sing-around technique in a fixed-path interferometer; for mass density: Vibrating tube method.
The nature of data set [2]: molar heat capacity at constant pressure; xn = mol fraction of the nth substance listed. Particulars: 101 kPa, Liquid, DSC, x2 = 0.

± gives the expanded uncertainty stated by the source.

`CCCCCCCCCC` [decane] + CC12CCC(CC1)C(C)(C)O2: the viscosity in data set [1] (278.15 K) is reported as 1.19 ± 0.04 mPa·s; in data set [1] (298.15 K) it was 0.86 ± 0.04 mPa·s; in data set [1] (318.15 K) it was 0.66 ± 0.04 mPa·s; in data set [1] (338.15 K), 0.54 ± 0.04 mPa·s. Further, the speed of sound was 1315 ± 1.5 m/s in data set [1] (278.15 K), 1234.7 ± 1.5 m/s in data set [1] (298.15 K), 1156.6 ± 1.5 m/s in data set [1] (318.15 K) and 1080.5 ± 1.5 m/s in data set [1] (338.15 K). Moreover, the mass density in data set [1] (278.15 K) is 741.18 ± 0.24 kg/m3; in data set [1] (298.15 K), 726.11 ± 0.24 kg/m3; in data set [1] (318.15 K) it was 710.89 ± 0.24 kg/m3; in data set [1] (338.15 K), 695.42 ± 0.25 kg/m3. Also, the “molar heat capacity at constant pressure” value came out at 305.94 ± 12 J/K/mol in data set [2] (278.15 K), 314.4 ± 12 J/K/mol in data set [2] (298.15 K), 323.94 ± 13 J/K/mol in data set [2] (318.15 K) and 334.32 ± 13 J/K/mol in data set [2] (338.15 K).

In the case of `CCCCCC` [hexane] + CC12CCC(CC1)C(C)(C)O2, the viscosity in data set [1] (278.15 K) was 0.39 ± 0.04 mPa·s; in data set [1] (298.15 K) it was 0.34 ± 0.04 mPa·s; in data set [1] (318.15 K), 0.3 ± 0.04 mPa·s; in data set [1] (338.15 K), 0.26 ± 0.04 mPa·s. Further, the speed of sound in data set [1] (278.15 K) is 1169 ± 1.5 m/s; in data set [1] (298.15 K) it was 1078.2 ± 1.5 m/s; in data set [1] (318.15 K), 988.59 ± 1.5 m/s; in data set [1] (338.15 K), 901.09 ± 1.5 m/s. The mass density in data set [1] (278.15 K) stood at 673.1 ± 0.25 kg/m3; in data set [1] (298.15 K) it was 655.3 ± 0.25 kg/m3; in data set [1] (318.15 K) it was 636.71 ± 0.25 kg/m3; in data set [1] (338.15 K) it was 617.44 ± 0.26 kg/m3. In addition, the “molar heat capacity at constant pressure” value in data set [2] (278.15 K) was 188.32 ± 7.3 J/K/mol; in data set [2] (298.15 K), 194.96 ± 7.5 J/K/mol; in data set [2] (318.15 K), 201.96 ± 7.8 J/K/mol; in data set [2] (338.15 K) it was 208.99 ± 8.1 J/K/mol.

With `CCCCCCCC` [octane] + CC12CCC(CC1)C(C)(C)O2, the viscosity turned out to be 0.68 ± 0.04 mPa·s in data set [1] (278.15 K), 0.53 ± 0.04 mPa·s in data set [1] (298.15 K), 0.43 ± 0.04 mPa·s in data set [1] (318.15 K) and 0.37 ± 0.04 mPa·s in data set [1] (338.15 K). Further, the speed of sound in data set [1] (278.15 K) came to 1256.7 ± 1.3 m/s; in data set [1] (298.15 K), 1172.7 ± 1.2 m/s; in data set [1] (318.15 K), 1090.7 ± 1.2 m/s; in data set [1] (338.15 K), 1010.7 ± 1.2 m/s. Also, the mass density in data set [1] (278.15 K) amounted to 714.55 ± 0.17 kg/m3; in data set [1] (298.15 K), 698.51 ± 0.17 kg/m3; in data set [1] (318.15 K), 682.19 ± 0.18 kg/m3; in data set [1] (338.15 K), 665.43 ± 0.18 kg/m3. Also, the “molar heat capacity at constant pressure” value is given as 246.17 ± 9.5 J/K/mol in data set [2] (278.15 K), 253.89 ± 9.8 J/K/mol in data set [2] (298.15 K), 262.16 ± 10 J/K/mol in data set [2] (318.15 K) and 270.96 ± 10 J/K/mol in data set [2] (338.15 K).

One may read the viscosity as the internal friction of a fluid under shear. As usually defined, the speed of sound is how fast a sound wave travels through the sample. Usually mass density stands for the mass of a sample divided by its volume.

(Values after the NIST ThermoML archive (doi:10.1016/j.fluid.2016.08.035).)
